Results on five compounds are retold here after PMC10460844, “Real‐Time Monitoring of Multitarget Antimicrobial Mechanisms of Peptoids Using Label‐Free Imaging with Optical Diffraction Tomography” (Advanced Science, 2023).

Square brackets hold non-standard residues; d marks the D form. Peptide text beside a SMILES is read from it. Gly(N(CH2)2(3-indolyl)) = O=C(O)CNCCc1c[nH]c2ccccc12; Nspe = C[C@H](NCC(=O)O)c1ccccc1; Nlys = NCCCCNCC(=O)O A value given as a limit tells only on which side of the number the result lay.

One data set relates to rat erythrocytes. In words: Hemolysis assay. Particulars: for HC10 / HC50: pH 7.4. It counts as cell-based. The protocol: The hemolysis assay was performed using rat erythrocytes in phosphate‐buffered saline (PBS), as reported by Mendes et al.^[ [45] ^] Animal studies were approved by the Laboratory Animal Resource Center of Gwangju Institute of Science and Technology. Blood was collected from a 13‐week‐old male Sprague‐Dawley rat in tubes containing 158 USP units of sodium heparin to prevent coagulation and centrifuged at 1000 rpm for 10 min at 4 °C. Plasma was removed carefully and erythrocyte pellets were washed three times with PBS (35 mM phosphate, pH 7.4, 150 mM NaCl). Next, 150 µL of a 10% erythrocyte suspension was mixed with 50 µL of serially diluted peptoids (0–100 µM) in a 96‐well black polypropylene plates (Greiner, Kremsmünster, Austria). Untreated erythrocytes and cells lysed by the addition of 1% Triton X‐100 were used as negative and positive controls, respectively, with the 1% Triton X‐100‐treated wells being accepted to represent 100% hemolysis. The reaction mixture was incubated at 37 °C for 60 min, and the plates were centrifuged at 1000 rpm for 15 min. Aliquots (150 µL) of the supernatant were transferred to fresh 96‐well plates, and the absorbance of each well was measured at 540 nm using a microplate reader. Hemolysis induced by peptoids was calculated as the percentage value of Triton X‐100 lysed cells. The percentage of hemolysis by the extracts was calculated according to the following formula: % hemolysis = [(Abs 540 nm in the peptoid solution – Abs 540 nm in PBS) / (Abs 540 nm in 1% Triton X‐100 – Abs 540 nm in PBS)] × 100. HC10 and HC50 were defined as the peptoid concentrations that caused 10% and 50% hemolysis in rat erythrocytes, respectively. H max indicates the percentage of hemolysis observed at the maximum peptoid concentration, 100 µM throughout this study.

Data set [1] is described as follows: Analytical reversed-phase HPLC elution (hydrophobicity). Particulars: Table S1; analytical RP-HPLC, SunFire C18, water/ACN + 0.1% TFA, 5 to 100% B linear over 30 min, 1 mL/min, UV 220 nm; approximate comparison of hydrophobicity. It is filed as physicochemical. The protocol:
7. HPLC chromatogram, retention time (tR), and LC-MS data
HPLC analysis of peptoids was conducted using a Waters HPLC system equipped with a Waters 2489 UV/Visible Detector, 1525 Binary HPLC Pump, 2707 Autosampler, 5CH column oven, and a C18 column (SunFire C18, 4.6 × 250 mm, 5 μm; Waters Corp., Milford, MA, USA). The mobile phases were deionized water (A, with + 0.1% TFA) and acetonitrile (ACN; B, with + 0.1% TFA). Before sample injection, the column was conditioned with 5% B for 10 min. Then, the mobile phase was maintained at 5% B for 2 min, followed by increasing B to 100% using a linear gradient over 30 min. At this point, 100% B was maintained for 5 additional min. The flow rate of the mobile phase was 1 mL/min. The sample was detected by measuring absorbance at 220 nm. […]

As to `C[C@@H](c1ccccc1)N(CC(=O)N(CCCCN)CC(=O)N(CC(=O)N(CC(=O)N(CCCCN)CC(=O)N(CC(=O)N(CC(=O)N(CCCCN)CC(=O)N(CC(=O)N(CC(=O)N(CCc1c[nH]c2ccccc12)CC(N)=O)[C@@H](C)c1ccccc1)[C@@H](C)c1ccccc1)[C@@H](C)c1ccccc1)[C@@H](C)c1ccccc1)[C@@H](C)c1ccccc1)[C@@H](C)c1ccccc1)C(=O)CN(C(=O)CNCCCCN)[C@@H](C)c1ccccc1` [peptoid 4] (H-[Nlys][Nspe][Nspe][Nlys][Nspe][Nspe][Nlys][Nspe][Nspe][Nlys][Nspe][Nspe][Gly(N(CH2)2(3-indolyl))]-NH2), in the data set with rat erythrocytes, the “Hmax (100 µM)” value came out at 103.2±0.9%, the HC10 is on record as less than 6.3 µM and the HC50 (usually the concentration that lyses half of the red blood cells) is given as 6.7 µM. For the same compound, the HPLC elution in data set [1] stood at 57.0 % MeCN.

Turning to `C[C@@H](c1ccccc1)N(CC(=O)N(CCCCN)CC(=O)N(CC(=O)N(CC(=O)N(CCCCN)CC(=O)N(CC(=O)N(CC(=O)N(CCCCN)CC(=O)N(CC(=O)N(CC(=O)N(CCc1c[nH]c2ccccc12)CC(N)=O)[C@@H](C)c1ccccc1)[C@@H](C)c1ccccc1)[C@@H](C)c1ccccc1)[C@@H](C)c1ccccc1)[C@@H](C)c1ccccc1)[C@@H](C)c1ccccc1)C(=O)CN(C(=O)CN(CCCCN)C(=O)CNCCc1c[nH]c2ccccc12)[C@@H](C)c1ccccc1` [peptoid 5] (H-[Gly(N(CH2)2(3-indolyl))][Nlys][Nspe][Nspe][Nlys][Nspe][Nspe][Nlys][Nspe][Nspe][Nlys][Nspe][Nspe][Gly(N(CH2)2(3-indolyl))]-NH2), in the data set on rat erythrocytes, the “Hmax (100 µM)” value is 108.1±2.7%, the HC10 is given as less than 6.3 µM and the HC50 is recorded as 15.3 µM. The HPLC elution in data set [1] is recorded as 58.6 % MeCN.

Take `C[C@@H](c1ccccc1)N(CC(N)=O)C(=O)CN(C(=O)CN(CCCCN)C(=O)CN(C(=O)CN(C(=O)CN(CCCCN)C(=O)CN(C(=O)CN(C(=O)CN(CCCCN)C(=O)CN(C(=O)CN(C(=O)CN(CCCCN)C(=O)CN(CCc1c[nH]c2ccccc12)C(=O)CNCCc1c[nH]c2ccccc12)[C@@H](C)c1ccccc1)[C@@H](C)c1ccccc1)[C@@H](C)c1ccccc1)[C@@H](C)c1ccccc1)[C@@H](C)c1ccccc1)[C@@H](C)c1ccccc1)[C@@H](C)c1ccccc1` [peptoid 6]: in the data set on rat erythrocytes, the “Hmax (100 µM)” value amounted to 101.6±5.8%, the HC10 was determined as 9.6 µM and the HC50 was determined as 22.0 µM. In addition, the HPLC elution in data set [1] stood at 57.2 % MeCN.

Consider `C[C@@H](c1ccccc1)N(CC(=O)N(CCc1c[nH]c2ccccc12)CC(N)=O)C(=O)CN(CCCCN)C(=O)CN(C(=O)CN(C(=O)CN(CCCCN)C(=O)CN(C(=O)CN(C(=O)CN(CCCCN)C(=O)CN(C(=O)CN(C(=O)CNCCCCN)[C@@H](C)c1ccccc1)[C@@H](C)c1ccccc1)[C@@H](C)c1ccccc1)[C@@H](C)c1ccccc1)[C@@H](C)c1ccccc1)[C@@H](C)c1ccccc1` [peptoid 7] (H-[Nlys][Nspe][Nspe][Nlys][Nspe][Nspe][Nlys][Nspe][Nspe][Nlys][Nspe][Gly(N(CH2)2(3-indolyl))]-NH2), for which, in the data set with rat erythrocytes, the “Hmax (100 µM)” value amounted to 94.1±4.3%, the HC10 is 7.8 µM and the HC50 came out at 23.8 µM. In addition, the HPLC elution in data set [1] is recorded as 54.1 % MeCN.

Regarding `C[C@@H](c1ccccc1)N(CC(N)=O)C(=O)CN(C(=O)CN(CCCCN)C(=O)CN(CCc1c[nH]c2ccccc12)C(=O)CN(C(=O)CN(CCCCN)C(=O)CN(C(=O)CN(C(=O)CN(CCCCN)C(=O)CN(C(=O)CN(C(=O)CNCCCCN)[C@@H](C)c1ccccc1)[C@@H](C)c1ccccc1)[C@@H](C)c1ccccc1)[C@@H](C)c1ccccc1)[C@@H](C)c1ccccc1)[C@@H](C)c1ccccc1` [peptoid 8], in the data set on rat erythrocytes, the “Hmax (100 µM)” value is 105.1±2.2%, the HC10 was found to be 12.8 µM and the HC50 amounted to 28.4 µM. Moreover, the HPLC elution in data set [1] is listed as 54.5 % MeCN.
